The values that follow come from patent US20200291086A1, “BIOREVERSABLE PROMOIETIES FOR NITROGEN-CONTAINING AND HYDROXYL-CONTAINING DRUGS” (priority 2013, published 2020).

Read-outs that look alike come from different tables or passages of the source. Numbered stars: 1 amine (or outer) side, 2 acyl side, 3 side chain; on linkers, the order of the positions; unused ones are H or OH. Square brackets hold non-standard residues; d marks the D form. Peptide text beside a SMILES is read from it. * marks the point of attachment. X13 = CCCCCCCCCC(=O)Nc1ccc2c(c1)CN([*:1])[C@H](C(=O)[*:2])C2; Phenylacetic(2-CH2NH2) = O=C(Cc1ccccc1CN[*:1])[*:2]; 2(aminomethyl)benzoyl = O=C(c1ccccc1CN[*:1])[*:2]; X6 = CCCCCCCCCC(=O)NCCCNC(=O)c1ccc(C(=O)*)c(CN)c1; X2 = O=C([C@@H]1Cc2ccccc2N1[*:1])[*:2]; X9 = NCCS(=O)(=O)c1ccc(C(=O)*)c(CN)c1; Tiq1c(1S) = O=C(O)[C@H]1NCCc2ccccc21; X11 = NCCCNC(=O)c1ccc(C(=O)*)c(CN)c1; Tic = O=C(O)[C@@H]1Cc2ccccc2CN1; dTic = O=C(O)[C@H]1Cc2ccccc2CN1; X12 = Cc1cc(N)cc(C(=O)*)c1CN; X5 = Cc1cc(CN)cc(CN)c1C(=O)*; Decanoyl = CCCCCCCCCC(=O)*; X1 = O=C(O)Cc1ccccc1C(=O)*; X4 = NCc1ncccc1C(=O)*; X7 = NCc1cccnc1C(=O)*

This data set in a line: Determination of half life in PBS: cleavage of promoieties from capped model peptides. Format: physicochemical. The protocol:
Determination Of half Life in PBS
Polypeptides GIVEQAA-NH2 (SEQ ID NO: 57) and […] (SEQ ID NO: 58), two mimics of the N-terminus section of insulin A chain, were used as model peptides to determine the half lives of various promoieties linked to the N-terminus of the peptides through an amide bond. The model peptides were prepared with Fmoc chemistry, cleaved by TFA and purified by preparative RP-HPLC.
The promoiety capped model peptide was dissolved at 1 mg/mL concentration in PBS and the solution was incubated at 37° C. in a water bath. Samples were collected for analysis at different time points (e.g., 8 h, 16 h, 24 h, 48 h, 72 h, 96 h, 120 h). […] The promoiety cleavage was quenched by lowering pH to 2 by addition of 0.1% TFA solution. RP-HPLC was used to monitor the cleavage reactions and the cleavage rates were quantitatively studied by measuring the peak areas of the promoiety capped and released model peptides. Agilent 6110 Quadrupole LC-MS was employed to verify the change of mass in the course of reaction.
The RP-HPLC analysis was performed using a Shimadzu LC-2010A HT system and a 150 mm×4.6 mm Zorbax 300SB-C18 column. The flow rate was 1 ml/min. Solvent A contained 0.1% TFA/5% CH3CN in deionized water, and solvent B contained 0.1% TFA in 100% CH3CN. A linear gradient was employed (e.g., 10-70% B in 10 minutes).
The rate of cleavage was determined for the respective promoiety capped model peptides. The concentrations of the promoiety capped model peptides and the released model peptides were determined by their respective peak areas. The first order dissociation rate constant of a promoiety capped model peptide was determined by plotting the logarithm of [starting promoiety capped model peptide]/[remaining promoiety capped model peptide] at various time intervals. The half life for cleavage of a promoiety capped model peptide was calculated by using the equation and the slope derived from this plot.
The cleavage half lives of various promoieties linked to the model peptides were determined using the procedures described above.

[1] abbreviates: PBS, 37° C., 1 mg/mL, RP-HPLC, read-out: t 1/2 (h), cleavage of promoiety linked to N terminus of model peptide X-[…] (converted).
Setting [2] is: PBS, 37° C., 1 mg/mL, RP-HPLC, read-out: t 1/2 (h), cleavage of promoiety linked to N terminus of model peptide X-GIVEQAA (converted).

Take `N[C@@H](CCCCNC(=O)OCC1c2ccccc2-c2ccccc21)c1nncn1[C@@H](CO)C(=O)O`: the half-life at 1 mg/mL under setting [1] was 79.7 h. For the molecule `N[C@@H](CO)c1nncn1[C@@H](CCCCNC(=O)OCC1c2ccccc2-c2ccccc21)C(=O)O`, the half-life at 1 mg/mL under setting [1] was 193 h. As for `Cc1cc(C(=O)O)cc(CN)c1C(=O)NCCc1ccc(N)cc1`, the half-life at 1 mg/mL (compound drawn, stated after the PBS tables, read-out: Half life for cleavage (converted)) is 779 h. Consider `CCCCCCCCCC(=O)Nc1ccc2c(c1)CN(C(=O)[C@H](C)N)[C@H](C(=O)NCC(=O)N[C@H](C(=O)N[C@H](C(=O)N[C@@H](CCC(=O)O)C(=O)N[C@@H](CCC(N)=O)C(=O)N[C@@H](C)C(=O)N[C@@H](C)C(=O)O)C(C)C)[C@@H](C)CC)C2` (H-A[X13]GIVEQAA-OH), for which the half-life at 1 mg/mL under setting [2] is 38.9 h. In the case of `CCCCCCCCCC(=O)NCCCC[C@H](N)C(=O)N1CCc2ccccc2[C@H]1C(=O)NCC(=O)N[C@H](C(=O)N[C@H](C(=O)N[C@@H](CCC(=O)O)C(=O)N[C@@H](CCC(N)=O)C(=O)N[C@@H](C)C(=O)N[C@@H](C)C(=O)N[C@@H](Cc1ccc(O)cc1)C(=O)O)C(C)C)[C@@H](C)CC` (H-K(Decanoyl)[Tiq1c(1S)]GIVEQAAY-OH), the half-life at 1 mg/mL under setting [1] was 262 h. `CC[C@H](C)[C@H](NC(=O)CNC(=O)c1cccnc1CN)C(=O)N[C@H](C(=O)N[C@@H](CCC(=O)O)C(=O)N[C@@H](CCC(N)=O)C(=O)N[C@@H](C)C(=O)N[C@@H](C)C(=O)N[C@@H](Cc1ccc(O)cc1)C(=O)O)C(C)C` (X4-GIVEQAAY-OH; C-terminus assumed): the half-life at 1 mg/mL under setting [1] is 458 h. As to `CC[C@H](C)[C@H](NC(=O)CNC(=O)c1c(C)cc(CN)cc1CN)C(=O)N[C@H](C(=O)N[C@@H](CCC(=O)O)C(=O)N[C@@H](CCC(N)=O)C(=O)N[C@@H](C)C(=O)N[C@@H](C)C(=O)O)C(C)C` (X5-GIVEQAA-OH; N-terminus and C-terminus assumed), under setting [2], the half-life at 1 mg/mL was 300 h. Turning to `CCCCCCCCCC(=O)NCCCNC(=O)c1ccc(C(=O)NCC(=O)N[C@H](C(=O)N[C@H](C(=O)N[C@@H](CCC(=O)O)C(=O)N[C@@H](CCC(N)=O)C(=O)N[C@@H](C)C(=O)N[C@@H](C)C(=O)N[C@@H](Cc2ccc(O)cc2)C(=O)O)C(C)C)[C@@H](C)CC)c(CN)c1` (X6-GIVEQAAY-OH), the half-life at 1 mg/mL under setting [1] was 181 h. The same measure, in the same setting: the figure for `CC[C@H](C)[C@H](NC(=O)CNC(=O)c1ncccc1CN)C(=O)N[C@H](C(=O)N[C@@H](CCC(=O)O)C(=O)N[C@@H](CCC(N)=O)C(=O)N[C@@H](C)C(=O)N[C@@H](C)C(=O)N[C@@H](Cc1ccc(O)cc1)C(=O)O)C(C)C` (X7-GIVEQAAY-OH; C-terminus assumed) is 597 h.

With `CC[C@H](C)[C@H](NC(=O)CNC(=O)c1ccc(S(=O)(=O)CCN)cc1CN)C(=O)N[C@H](C(=O)N[C@@H](CCC(=O)O)C(=O)N[C@@H](CCC(N)=O)C(=O)N[C@@H](C)C(=O)N[C@@H](C)C(=O)O)C(C)C` (X9-GIVEQAA-OH), under setting [2], the half-life at 1 mg/mL was 28.1 h. With `CC[C@H](C)[C@H](NC(=O)CNC(=O)c1ccc(C(=O)NCCCN)cc1CN)C(=O)N[C@H](C(=O)N[C@@H](CCC(=O)O)C(=O)N[C@@H](CCC(N)=O)C(=O)N[C@@H](C)C(=O)N[C@@H](C)C(=O)N[C@@H](Cc1ccc(O)cc1)C(=O)O)C(C)C` (X11-GIVEQAAY-OH), the half-life at 1 mg/mL under setting [1] was 112 h. Regarding `CC[C@H](C)[C@H](NC(=O)CNC(=O)c1cc(N)cc(C)c1CN)C(=O)N[C@H](C(=O)N[C@@H](CCC(=O)O)C(=O)N[C@@H](CCC(N)=O)C(=O)N[C@@H](C)C(=O)N[C@@H](C)C(=O)O)C(C)C` (X12-GIVEQAA-OH; N-terminus and C-terminus assumed), under setting [2], the half-life at 1 mg/mL was 85 h. Take `CC[C@H](C)[C@H](NC(=O)CNC(=O)c1ccccc1CN)C(=O)N[C@H](C(=O)N[C@@H](CCC(=O)O)C(=O)N[C@@H](CCC(N)=O)C(=O)N[C@@H](C)C(=O)N[C@@H](C)C(=O)N[C@@H](Cc1ccc(O)cc1)C(=O)O)C(C)C` ({2(aminomethyl)benzoyl}-GIVEQAAY-OH; C-terminus assumed): under setting [1], the half-life at 1 mg/mL is 1030 h.

Consider `CC[C@H](C)[C@H](NC(=O)CNC(=O)Cc1ccccc1CN)C(=O)N[C@H](C(=O)N[C@@H](CCC(=O)O)C(=O)N[C@@H](CCC(N)=O)C(=O)N[C@@H](C)C(=O)N[C@@H](C)C(=O)N[C@@H](Cc1ccc(O)cc1)C(=O)O)C(C)C` ({Phenylacetic(2-CH2NH2)}-GIVEQAAY-OH; C-terminus assumed), for which the half-life at 1 mg/mL under setting [1] is 482 h. For the molecule `CC[C@H](C)[C@H](NC(=O)CNC(=O)[C@@H]1Cc2ccccc2N1C(=O)[C@H](C)N)C(=O)N[C@H](C(=O)N[C@@H](CCC(=O)O)C(=O)N[C@@H](CCC(N)=O)C(=O)N[C@@H](C)C(=O)N[C@@H](C)C(=O)N[C@@H](Cc1ccc(O)cc1)C(=O)O)C(C)C` [NH2-Ala-Indo2CA] (H-A[X2]GIVEQAAY-OH; C-terminus assumed), under setting [1], the half-life at 1 mg/mL is 3.4 h.

On to `CC[C@H](C)[C@H](NC(=O)CNC(=O)[C@@H]1Cc2ccccc2CN1C(=O)[C@H](C)N)C(=O)N[C@H](C(=O)N[C@@H](CCC(=O)O)C(=O)N[C@@H](CCC(N)=O)C(=O)N[C@@H](C)C(=O)N[C@@H](C)C(=O)N[C@@H](Cc1ccc(O)cc1)C(=O)O)C(C)C` [NH2-Ala-Tic] (H-A[Tic]GIVEQAAY-OH; C-terminus assumed), for which the half-life at 1 mg/mL under setting [1] was 58.9 h.

`CCCCCCCCCC(=O)NCCCC[C@H](N)C(=O)N1c2ccccc2C[C@H]1C(=O)NCC(=O)N[C@H](C(=O)N[C@H](C(=O)N[C@@H](CCC(=O)O)C(=O)N[C@@H](CCC(N)=O)C(=O)N[C@@H](C)C(=O)N[C@@H](C)C(=O)N[C@@H](Cc1ccc(O)cc1)C(=O)O)C(C)C)[C@@H](C)CC` [NH2-K(C10)-Indo2CA] (H-K(Decanoyl)[X2]GIVEQAAY-OH; C-terminus assumed): the half-life at 1 mg/mL under setting [1] is 6 h. As for `CCCCCCCCCC(=O)NCCCC[C@H](N)C(=O)N1Cc2ccccc2C[C@H]1C(=O)NCC(=O)N[C@H](C(=O)N[C@H](C(=O)N[C@@H](CCC(=O)O)C(=O)N[C@@H](CCC(N)=O)C(=O)N[C@@H](C)C(=O)N[C@@H](C)C(=O)N[C@@H](Cc1ccc(O)cc1)C(=O)O)C(C)C)[C@@H](C)CC` [NH2-K(C10)-Tic] (H-K(Decanoyl)[Tic]GIVEQAAY-OH; C-terminus assumed), the half-life at 1 mg/mL under setting [1] was 46.9 h. With `CC[C@H](C)[C@H](NC(=O)CNC(=O)[C@@H]1Cc2ccccc2N1C(=O)[C@@H](N)Cc1ccccc1)C(=O)N[C@H](C(=O)N[C@@H](CCC(=O)O)C(=O)N[C@@H](CCC(N)=O)C(=O)N[C@@H](C)C(=O)N[C@@H](C)C(=O)N[C@@H](Cc1ccc(O)cc1)C(=O)O)C(C)C` [NH2-Phe-Indo2CA] (H-F[X2]GIVEQAAY-OH; C-terminus assumed), under setting [1], the half-life at 1 mg/mL was 9.7 h. For `CC[C@H](C)[C@H](NC(=O)CNC(=O)[C@@H]1Cc2ccccc2N1C(=O)[C@@H](N)C(C)C)C(=O)N[C@H](C(=O)N[C@@H](CCC(=O)O)C(=O)N[C@@H](CCC(N)=O)C(=O)N[C@@H](C)C(=O)N[C@@H](C)C(=O)N[C@@H](Cc1ccc(O)cc1)C(=O)O)C(C)C` [NH2-Val-Indo2CA] (H-V[X2]GIVEQAAY-OH; C-terminus assumed), under setting [1], the half-life at 1 mg/mL was 13 h.

As for `CCCCCCCCCC(=O)NCCCC[C@@H](N)C(=O)N1Cc2ccccc2C[C@@H]1C(=O)NCC(=O)N[C@H](C(=O)N[C@H](C(=O)N[C@@H](CCC(=O)O)C(=O)N[C@@H](CCC(N)=O)C(=O)N[C@@H](C)C(=O)N[C@@H](C)C(=O)N[C@@H](Cc1ccc(O)cc1)C(=O)O)C(C)C)[C@@H](C)CC` [NH2-dK(C10)-dTic] (H-[dK](Decanoyl)[dTic]GIVEQAAY-OH; C-terminus assumed), the half-life at 1 mg/mL under setting [1] is 50.6 h. Take `CC[C@H](C)[C@H](NC(=O)CNC(=O)c1ccccc1CC(=O)O)C(=O)N[C@H](C(=O)N[C@@H](CCC(=O)O)C(=O)N[C@@H](CCC(N)=O)C(=O)N[C@@H](C)C(=O)N[C@@H](C)C(=O)N[C@@H](Cc1ccc(O)cc1)C(=O)O)C(C)C` [drawing 171] (X1-GIVEQAAY-OH; C-terminus assumed): the half-life at 1 mg/mL (PBS (phosphate-buffered saline), pH 4, read-out: t 1/2 (h), cleavage of promoiety linked to N terminus of model peptide X-[…] (converted)) was 6.2 h. Take `CC[C@H](C)[C@H](NC(=O)CNC(=O)c1ccccc1CC(=O)O)C(=O)N[C@H](C(=O)N[C@@H](CCC(=O)O)C(=O)N[C@@H](CCC(N)=O)C(=O)N[C@@H](C)C(=O)N[C@@H](C)C(=O)N[C@@H](Cc1ccc(O)cc1)C(=O)O)C(C)C` [drawing 173] (X1-GIVEQAAY-OH; C-terminus assumed): the half-life at 1 mg/mL under setting [1] is 183 h. On to “SEQ ID NO: 60 (GIVEQAAY; N-term may be promoiety modified)”, for which the “t 1/2 (h), cleavage of promoiety linked to N terminus of model peptide X-GIVEQAAY” value (PBS, 37° C., 1 mg/mL, RP-HPLC) is 72.6 h.
